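The compound was tested at five concentrations on cells cultured in 96-well plates, with a 48-hour exposure period. TGI is the concentration that stops growth completely.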
Tests used:
Test in all cases: DTP human tumour cell line panel, 48 h
NCI/ADR-RES ovarian = tested on: NCI/ADR-RES ovarian
SR leukemia = tested on: SR leukemia
ACHN renal = tested on: ACHN renal
SNB-19 CNS = tested on: SNB-19 CNS
T-47D breast = tested on: T-47D breast
MCF7 breast = tested on: MCF7 breast
SW-620 colon = tested on: SW-620 colon
NCI-H23 lung = tested on: NCI-H23 lung
SK-MEL-5 melanoma = tested on: SK-MEL-5 melanoma
HT29 colon = tested on: HT29 colon
SF-268 CNS = tested on: SF-268 CNS
SF-539 CNS = tested on: SF-539 CNS
IGROV1 ovarian = tested on: IGROV1 ovarian
HCT-15 colon = tested on: HCT-15 colon
HCC-2998 colon = tested on: HCC-2998 colon
HS 578T breast = tested on: HS 578T breast
EKVX NSCLC = tested on: EKVX NSCLC
UO-31 renal = tested on: UO-31 renal
SNB-75 CNS = tested on: SNB-75 CNS
NCI-H522 lung = tested on: NCI-H522 lung
OVCAR-3 ovarian = tested on: OVCAR-3 ovarian
SK-OV-3 ovarian = tested on: SK-OV-3 ovarian
PC-3 prostate = tested on: PC-3 prostate
SK-MEL-28 melanoma = tested on: SK-MEL-28 melanoma
HCT-116 colon = tested on: HCT-116 colon
OVCAR-8 ovarian = tested on: OVCAR-8 ovarian
OVCAR-5 ovarian = tested on: OVCAR-5 ovarian
RPMI-8226 leukemia = tested on: RPMI-8226 leukemia
SF-295 CNS = tested on: SF-295 CNS
M14 melanoma = tested on: M14 melanoma
DU-145 prostate = tested on: DU-145 prostate
K-562 leukemia = tested on: K-562 leukemia
UACC-257 melanoma = tested on: UACC-257 melanoma
COLO 205 colon = tested on: COLO 205 colon
CAKI-1 renal = tested on: CAKI-1 renal
HOP-62 NSCLC = tested on: HOP-62 NSCLC
BT-549 breast = tested on: BT-549 breast
OVCAR-4 ovarian = tested on: OVCAR-4 ovarian
MOLT-4 leukemia = tested on: MOLT-4 leukemia
SK-MEL-2 melanoma = tested on: SK-MEL-2 melanoma
MDA-MB-231 breast = tested on: MDA-MB-231 breast
NCI-H460 lung = tested on: NCI-H460 lung
KM12 colon = tested on: KM12 colon
UACC-62 melanoma = tested on: UACC-62 melanoma
RXF 393 renal = tested on: RXF 393 renal
786-0 renal = tested on: 786-0 renal
HOP-92 NSCLC = tested on: HOP-92 NSCLC
A498 renal = tested on: A498 renal
U251 CNS = tested on: U251 CNS
MDA-MB-435 = tested on: MDA-MB-435
NCI-H226 lung = tested on: NCI-H226 lung
SN12C renal = tested on: SN12C renal
MDA-N = tested on: MDA-N
A549 NSCLC = tested on: A549 NSCLC
TK-10 renal = tested on: TK-10 renal

Measured: TGI

N#CCCN(CCC#N)c1ccc(C(N=Nc2ccccc2)=Nc2ccc(F)cc2)cc1
69.8 µM: NCI-H522 lung
> 100 µM: NCI/ADR-RES ovarian | SR leukemia | ACHN renal | SNB-19 CNS | T-47D breast | MCF7 breast | SW-620 colon | NCI-H23 lung | SK-MEL-5 melanoma | HT29 colon | SF-268 CNS | SF-539 CNS | IGROV1 ovarian | HCT-15 colon | HCC-2998 colon | HS 578T breast | EKVX NSCLC | UO-31 renal | SNB-75 CNS | OVCAR-3 ovarian | SK-OV-3 ovarian | PC-3 prostate | SK-MEL-28 melanoma | HCT-116 colon | OVCAR-8 ovarian | OVCAR-5 ovarian | RPMI-8226 leukemia | SF-295 CNS | M14 melanoma | DU-145 prostate | K-562 leukemia | UACC-257 melanoma | COLO 205 colon | CAKI-1 renal | HOP-62 NSCLC | BT-549 breast | OVCAR-4 ovarian | MOLT-4 leukemia | SK-MEL-2 melanoma | MDA-MB-231 breast | NCI-H460 lung | KM12 colon | UACC-62 melanoma | RXF 393 renal | 786-0 renal | HOP-92 NSCLC | A498 renal | U251 CNS | MDA-MB-435 | NCI-H226 lung | SN12C renal | MDA-N | A549 NSCLC | TK-10 renal

From PubChem BioAssay (NCI)
